Laboratory results taken from patent publication EP3875590A1, “METHOD FOR PRODUCING ORGANIC COMPOUND AND CORYNEFORM BACTERIUM” (Green Earth Institute Co., Ltd., priority 2018, dated 2020).

Tests used:
leucine dehydrogenase [1] = assay: enzyme kinetics (Michaelis-Menten) of the reductive amination reaction of HOB with purified leucine dehydrogenase; format: biochemical, Lysinibacillus sphaericus; conditions: 100 mM HEPES/KOH (pH 7.5), 200 mM ammonium chloride, 0.2 mM NADH, 3.7 µg/mL leucine dehydrogenase
Description: The solution in which the bacterial cells were crushed and which was obtained in 4-6-(1) was subjected to a filtration treatment using a syringe filter with a pore size of 0.2 µm (manufactured by Sartorius AG). Fractionation was performed using an AKTA purifier system (manufactured by GE Healthcare) to which a HisTrap™ FF 1 mL column was connected, and using 50 mM sodium phosphate buffer (pH 8.0), 500 mM sodium chloride, and 10% glycerol as adsorption buffers, and 50 mM sodium phosphate buffer (pH 8.0), 500 mM sodium chloride, 10% glycerol, and 500 mM imidazole as elution buffers. Fractions containing leucine dehydrogenase identified by SDS-PAGE were recovered and concentrated using ultrafiltration. […]
Using the purified leucine dehydrogenase thus obtained, analysis of enzyme kinetics based on the Michaelis-Menten formula using HOB as a substrate was performed. As reaction conditions, 100 mM HEPES/KOH (pH 7.5), 200 mM ammonium chloride, 0.2 mM NADH, and 3.7 µg/mL leucine dehydrogenase were used, and a reaction rate at which a concentration of HOB was 3.13, 6.25, 12.5, 25.0, 50.0, and 100 mM was measured. A reaction rate was calculated by measuring a continuous decrease in absorption by NADH at 340 nm using a Varioskan LUX (manufactured by Thermo Fisher Scientific Inc.). […]

leucine dehydrogenase [2] = assay: oxidative deamination reaction activity against L-homoserine, crushed-cell solution expressing leucine dehydrogenase; format: biochemical, Lysinibacillus sphaericus; conditions: crushed cells of GES1007 (E. coli BL21 (DE3), pGE1148); 100 mM glycine-KCl-KOH (pH 10.0), 2.5 mM NAD^+, 50 mM L-homoserine; NADH absorption at 340 nm
Description: Transformation was performed using pGE1148 and using ECOSTM Competent E. coli BL21 (DE3) (manufactured by NIPPON GENE CO., LTD.) according to its instructions, and the obtained strain was designated as GES1007. GES1007 was inoculated into an LB agar medium containing 100 µg/mL of ampicillin under aseptic conditions, and culture was performed at 37°C. Bacterial cells grown on the agar medium were inoculated into 10 mL of an LB medium containing 100 µg/mL of ampicillin, and shaking culture was performed at 37°C to prepare a seed culture solution. This seed culture solution was inoculated into 100 mL of an LB medium containing 100 µg/mL of ampicillin and prepared in a 500 mL flask so that a turbidity was 0.1. Shaking was performed at 37°C, and culture was performed until a turbidity was 0.7. […] When a protein concentration in this solution in which the cells were crushed was measured, it was 12 mg/mL.
Using this solution in which the bacterial cells were crushed, an oxidative deamination reaction activity against L-homoserine was measured. As the reaction conditions, an appropriately diluted solution in which the bacterial cells were crushed was mixed with 100 mM glycine-KCl-KOH (pH 10.0), 2.5 mM NAD^+, and 50 mM L-homoserine, and a continuous increase in absorption by NADH at 340 nm was measured using a Varioskan LUX (manufactured by Thermo Fisher Scientific Inc.). […]

valine dehydrogenase = target: T1, valine dehydrogenase (Streptomyces fradiae, UniProt P40176); assay: oxidative deamination reaction activity against L-homoserine, crushed-cell solution expressing valine dehydrogenase; format: biochemical; conditions: crushed cells of GES1057 (E. coli BL21 (DE3), pGE1175); same conditions as 4-6-(1): pH 10.0, 2.5 mM NAD^+, 50 mM L-homoserine
T1 construct: His-tag (pET-15b vector-encoded, with thrombin site); made in house; host or cells: E. coli BL21 (DE3), strain GES1057, plasmid pGE1175 (pET-15b)
Description: (§1) Using this solution in which the bacterial cells were crushed, an oxidative deamination reaction activity against L-homoserine was measured. As the reaction conditions, an appropriately diluted solution in which the bacterial cells were crushed was mixed with 100 mM glycine-KCl-KOH (pH 10.0), 2.5 mM NAD^+, and 50 mM L-homoserine, and a continuous increase in absorption by NADH at 340 nm was measured using a Varioskan LUX (manufactured by Thermo Fisher Scientific Inc.). As a result, a specific activity of this solution in which the bacterial cells were crushed against L-homoserine was 0.21 U/mg of protein.
(§2) Transformation was performed using pGE1175 and using ECOSTM Competent E. coli BL21 (DE3) (manufactured by NIPPON GENE CO., LTD.) according to its instructions, and the obtained strain was designated as GES 1057. When a protein concentration in a solution, in which the cells were crushed and which was obtained by subjecting GES1057 to the same operation as that of GES 1007, was measured, it was 4.2 mg/mL.
(§3) As a result of measuring an oxidative deamination reaction activity against L-homoserine in the same manner as in 4-6-(1) using this solution in which the bacterial cells were crushed, a specific activity of this solution in which the bacterial cells were crushed against L-homoserine was 0.21 U/mg of protein.

[3] = target: T2, phenylalanine dehydrogenase (Pseudobacillus badius, UniProt Q59224); assay: oxidative deamination reaction activity against L-homoserine, crushed-cell solution expressing phenylalanine dehydrogenase; format: biochemical, Bacillus badius; conditions: crushed cells of GES1136 (E. coli BL21 (DE3), pGE1237); same conditions as 4-6-(1): pH 10.0, 2.5 mM NAD^+, 50 mM L-homoserine
T2 construct: His-tag (pET-15b vector-encoded, with thrombin site); made in house; host or cells: E. coli BL21 (DE3), strain GES1136, plasmid pGE1237 (pET-15b)
Description: as §1
as §2, with “pGE1237” for “pGE1175”, “1136.” for “1057.”, “subj ecting GES1136” for “subjecting GES1057”, “11” for “4.2”
as §3, with “0.045” for “0.21”

T2 sequence (Q59224 whole entry): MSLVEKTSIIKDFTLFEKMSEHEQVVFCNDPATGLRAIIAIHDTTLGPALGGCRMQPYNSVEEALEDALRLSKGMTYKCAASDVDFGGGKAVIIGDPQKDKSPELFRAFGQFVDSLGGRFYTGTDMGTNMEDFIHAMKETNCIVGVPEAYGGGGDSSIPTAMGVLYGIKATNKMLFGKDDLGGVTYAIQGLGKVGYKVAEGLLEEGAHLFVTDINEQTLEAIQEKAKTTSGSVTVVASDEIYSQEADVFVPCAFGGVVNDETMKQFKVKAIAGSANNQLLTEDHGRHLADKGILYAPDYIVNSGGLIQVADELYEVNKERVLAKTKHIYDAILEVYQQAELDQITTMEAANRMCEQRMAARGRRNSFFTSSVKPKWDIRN
T1 sequence (P40176 whole entry): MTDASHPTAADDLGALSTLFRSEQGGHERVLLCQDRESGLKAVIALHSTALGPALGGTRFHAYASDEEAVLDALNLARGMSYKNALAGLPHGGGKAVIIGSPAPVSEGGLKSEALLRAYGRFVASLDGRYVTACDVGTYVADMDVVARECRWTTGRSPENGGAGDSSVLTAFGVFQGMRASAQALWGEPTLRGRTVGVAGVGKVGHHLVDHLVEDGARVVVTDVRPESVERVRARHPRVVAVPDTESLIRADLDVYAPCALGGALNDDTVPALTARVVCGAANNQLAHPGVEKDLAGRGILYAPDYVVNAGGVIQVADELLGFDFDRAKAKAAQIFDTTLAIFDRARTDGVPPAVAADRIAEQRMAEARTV

SMILES	Km (leucine dehydrogenase [1]; HOB 3.13-100 mM, read-out: Michaelis constant KM for HOB)	catalyst rotation speed kcat (leucine dehydrogenase [1]; HOB as a substrate)	specific activity of this solution in which the bacterial cells were crushed against L-homoserine (leucine dehydrogenase [2])	specific activity of this solution in which the bacterial cells were crushed against L-homoserine (valine dehydrogenase)	specific activity of this solution in which the bacterial cells were crushed against L-homoserine [3]
O=C(O)C(=O)CCO [HOB, 4-hydroxy-2-oxobutyric acid]	7.7 mM	2.7 s⁻¹			
N[C@@H](CCO)C(=O)O [L-homoserine]			0.21 U/mg of protein	0.21 U/mg of protein	0.045 U/mg of protein
